Measured values as given in PubChem BioAssay (NCI).
“And” between values parts separate entries of the source, which are not always exact repeats. Equal values may be shown once.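 Compound exposure: 48 hours, 5 concentrations, 96-well plates. GI50: concentration for 50% inhibition of growth. TGI denotes the concentration required for complete inhibition of growth.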

Key:
Test in all cases: NCI anticancer screen, dose series, 48 h
NCI-H460 lung = system: NCI-H460 lung
DLD-1 colon = system: DLD-1 colon
SF-539 CNS = system: SF-539 CNS
HCT-116 colon = system: HCT-116 colon
M19-MEL melanoma = system: M19-MEL melanoma
SW-620 colon = system: SW-620 colon
SF-295 CNS = system: SF-295 CNS
NCI-H23 lung = system: NCI-H23 lung
UACC-62 melanoma = system: UACC-62 melanoma
HS 578T breast = system: HS 578T breast
MCF7 breast = system: MCF7 breast

Row | SMILES | TGI (NCI-H460 lung) | TGI (DLD-1 colon) [µM] | TGI (SF-539 CNS) | TGI (HCT-116 colon) | TGI (M19-MEL melanoma) [µM] | TGI (SW-620 colon) [µM] | TGI (SF-295 CNS) | TGI (NCI-H23 lung) | TGI (UACC-62 melanoma) | TGI (HS 578T breast) | TGI (MCF7 breast) | GI50 (NCI-H460 lung) | GI50 (HS 578T breast) [µM] | GI50 (HCT-116 colon) | GI50 (MCF7 breast) | GI50 (SW-620 colon) | GI50 (UACC-62 melanoma)
1 | CC(=O)Nc1ccc(C(=O)NN2C(=O)C(Cl)C2/C=C/c2ccccc2)cc1 (stereo not drawn) | > 100 µM | > 100 | > 100 µM | > 100 µM | > 100 | > 100 | > 100 µM | > 100 µM | > 100 µM |  |  |  |  |  |  |  | 
2 | O=C(O)c1cc2sc(C(=O)O)cc2s1 | > 100 µM | > 100 | > 100 µM | > 100 µM | > 100 | > 100 | > 100 µM | > 100 µM | > 100 µM |  |  |  |  |  |  |  | 
3 | COc1ccc(OC/C(N=Cc2cccnc2)=N/NC(=O)c2ccncc2)cc1 | > 100 µM |  | > 100 µM | > 100 µM |  | > 100 | > 100 µM | > 100 µM | > 100 µM | > 100 µM | > 100 µM |  |  |  |  |  | 
4 | CC(=O)Oc1ccc(C2SCc3nc4ccccc4n32)cc1 (stereo not drawn) | > 100 µM |  | > 100 µM | > 100 µM |  | > 100 | > 100 µM | > 100 µM | > 100 µM | > 100 µM | > 100 µM |  |  |  |  |  | 
5 | O=C(CCCN1CCC(Nc2ccc(F)cc2)(c2nnnn2C2CCCCC2)CC1)c1ccc(F)cc1 | > 100 µM |  | 30.5 µM | 26.1 µM |  | > 100 | 40.9 µM | 29 µM | 11.2 µM | 46.3 µM | 33.1 µM |  |  |  |  |  | 
6 | O=C1OCC(CN2CCC(n3c(=O)[nH]c4ccccc43)CC2)=C1c1ccccc1 | 21.2 µM |  | 35.6 µM | 92.7 µM |  | > 100 | 72.6 µM | 52.2 µM | 26.9 µM | 60.4 µM | 96.4 µM |  |  |  |  |  | 
7 | CN(C)CCNc1nc2c(c(=O)n(C)c(=O)n2C)n1C | > 100 µM |  | > 100 µM | > 100 µM |  | > 100 | > 100 µM | > 100 µM | > 100 µM | > 100 µM | > 100 µM |  |  |  |  |  | 
8 | O=[N+]([O-])C(=C(\Cl)NCCO)/C(Cl)=C(/Cl)Br | 10.8 µM |  | 6.15 µM | 5.18 µM |  | 2.68 | 24.9 µM | 11.1 µM | 4.78 µM | 28 µM | 2.59 µM |  |  |  |  |  | 
9 | CN(C)C=Nc1cccc2c1NSN2 | > 100 µM |  | > 100 µM | > 100 µM |  | > 100 | > 100 µM | > 100 µM | > 100 µM | > 100 µM | > 100 µM |  |  |  |  |  | 
10 | Cc1ccc(S(=O)(=O)N/N=C2/C3CC4CCC2C4C3)cc1 (stereo not drawn) | > 100 µM |  | > 100 µM | > 100 µM |  | > 100 | > 100 µM | > 100 µM | > 100 µM | > 100 µM | > 100 µM |  |  |  |  |  | 
11 | O=CC1C(=O)Nc2nc3ccccc3n2C1c1ccccc1 (stereo not drawn) | 82.8 µM |  | 44.6 µM | 24.9 µM |  | 43.3 | 43.8 µM | 53.5 µM | 31.9 µM | > 100 µM | 27.4 µM |  |  |  |  |  | 
12 | COC(=O)/C=C/[C@H]1[C@H](C)N1S(=O)(=O)c1ccc(C)cc1 (stereo partly drawn) | > 100 µM |  | > 100 µM | > 100 µM |  | > 100 | > 100 µM | > 100 µM | > 100 µM | > 100 µM | > 100 µM |  |  |  |  |  | 
13 | COc1ccc([C@H]2C=C(c3cc(F)c(Cl)cc3Cl)N=c3s/c(=C\c4ccc(-c5ccc(Cl)cc5Cl)o4)c(=O)n32)cc1 | > 100 µM |  | > 100 µM | > 100 µM |  | > 100 | > 100 µM | > 100 µM | > 100 µM | > 100 µM | > 100 µM |  |  |  |  |  | 
14 | CSc1nc(NC2OC(CO)C(O)C(O)C2O)c(N)c(=O)[nH]1 (stereo not drawn) | > 100 µM | > 100 | > 100 µM | > 100 µM | > 100 | > 100 | > 100 µM | > 100 µM | > 100 µM |  | > 100 µM |  |  |  |  |  | 
15 | O=C1CN2CCN(CC2)CC(=O)Nc2ccc(cc2)S(=O)(=O)c2ccc(cc2)NC(=O)CN2CCN(CC2)CC(=O)Nc2ccc(cc2)S(=O)(=O)c2ccc(cc2)N1 | 38.4 µM |  | 49.2 µM | 71.9 µM |  | 50.7 | > 100 µM | > 90.4 µM | > 67.9 µM | > 100 µM | > 100 µM |  |  |  |  |  | 
16 | COC(=O)C(Cc1cc(OC)c(OC)c(OC)c1)(NC(=O)c1ccccc1)P(=O)(OC)OC (stereo not drawn) | > 100 µM | > 100 | > 100 µM | > 100 µM | > 100 | > 100 | > 100 µM | > 100 µM | > 100 µM |  |  |  |  |  |  |  | 
17 | CC(C)(C)OC(=O)/C=C/[C@@H](CCC(=O)/C=C/[C@H](/C=C\CCCC(=O)O)NC1(c2ccccc2)c2ccccc2-c2ccccc21)O[Si](C)(C)C(C)(C)C | 34.7 µM |  | 36.6 µM | 30.2 µM |  | 81.6 | 33.5 µM | 36.6 µM | 29.6 µM | 77.9 µM | 38.7 µM |  |  |  |  |  | 
18 | COc1ccc(Nc2cnc3cc(N)ccc3n2)cc1OC | > 100 µM | > 100 |  | > 100 µM | > 100 | > 100 | > 100 µM | > 100 µM | > 100 µM |  |  |  |  |  |  |  | 
19 | COc1ccc(-c2c(C#N)c(N)n(C3OC(COC(C)=O)C(OC(C)=O)C(OC(C)=O)C3OC(C)=O)c(=S)c2C#N)cc1 (stereo not drawn) | > 100 µM |  | 67.5 µM and > 100 µM | > 100 µM |  | > 100 | > 100 µM | > 100 µM | 73.4 µM and 47.3 µM | 83 µM and > 100 µM | > 100 µM and 60.9 µM |  |  |  |  |  | 
20 | C[C@H](OC(=O)/C=C/c1ccc(O)c(O)c1)[C@H](C)OC(=O)/C=C/c1ccc(O)c(O)c1 | > 100 µM |  | > 100 µM | 23.3 µM |  | 17.8 | 19.8 µM | 18 µM | 12.6 µM | > 100 µM | 70.7 µM |  |  |  |  |  | 
21 | Cc1nc2ccccc2n1Cc1ccc(NC(=S)NC2CCCCC2)cc1 | > 100 µM |  | > 100 µM | > 100 µM |  | > 100 | > 88.3 µM | > 100 µM | > 89.7 µM | > 100 µM | 72.3 µM |  |  |  |  |  | 
22 | CCOC1=NC(C(F)(F)F)(C(F)(F)F)N=C(/N=C(/N)N(C)C(C(C)C)P(=O)(OC(C)C)OC(C)C)O1 (stereo not drawn) | > 100 µM |  | > 100 µM | > 100 µM |  | > 100 | > 100 µM | > 100 µM | > 100 µM | > 100 µM | > 100 µM |  |  |  |  |  | 
23 | COc1ccc(-c2nc3ccccc3c(=O)[nH]2)cc1OC | > 100 µM |  | 80.5 µM | > 100 µM |  | > 100 | > 100 µM | > 100 µM | > 100 µM | 83.1 µM | > 100 µM |  |  |  |  |  | 
24 | Cc1c(OCc2cccc3ccccc23)ccc2c(=O)cc(S)oc12 | > 100 µM |  | 65.2 µM | 77.5 µM |  | > 100 | 88.7 µM | 80.7 µM | 73.3 µM | > 100 µM | > 100 µM |  |  |  |  |  | 
25 | COC(=O)/C=C/c1cc(OC)c2c(c1)C(C(=O)OC)C(c1ccc(O)c(OC)c1)O2 (stereo not drawn) | > 100 µM and > 47.9 µM and 27.8 µM |  | 9.24 µM and 8.25 µM and 10.4 µM | > 100 µM and > 46.7 µM and 19.7 µM |  | > 100 | 11.8 µM and 12.6 µM and 10 µM | > 100 µM and 13 µM and 56.5 µM | > 56.1 µM and 36.4 µM and 32.9 µM | > 88.1 µM | > 100 µM and > 69.5 µM and 42.9 µM | 13.9 µM and 7.71 µM and 5.24 µM | 5.34 | 4.22 µM and 3.67 µM and 1.1 µM | 1900 nM and 2050 nM and 690 nM | 2930 nM and 1450 nM and 1460 nM | 2420 nM and 3370 nM and 1570 nM
26 | Nc1nc(=O)n(C2CC(O)C(CO)O2)c2nc(-c3ccc(-c4ccccc4)cc3)cnc12 (stereo not drawn) | > 100 µM |  | > 100 µM | > 100 µM |  | > 100 | > 100 µM | > 100 µM | 61.1 µM | 93.9 µM | 54.1 µM |  |  |  |  |  | 
27 | O=c1[nH]nc(-c2ccccc2)c2[nH]c3c(c12)CCCc1ccccc1-3 | 60 µM |  | 36.1 µM | 28.5 µM |  | 50.8 | 57.5 µM | > 100 µM | 25.1 µM | 38.7 µM | 50.9 µM |  |  |  |  |  | 
28 | COC1=C2C[C@](OC)(C#CC=CC#CC2O)CC1(C)C (stereo partly drawn) | > 100 µM |  | > 100 µM | > 100 µM |  | > 100 | > 100 µM | > 100 µM | > 100 µM | > 100 µM | > 100 µM |  |  |  |  |  | 
29 | O=[N+]([O-])c1cnccc1-n1nnc2ccccc21 | > 87 µM | > 96.6 | 45.8 µM | > 100 µM | 49.6 | 52 | > 74.7 µM | > 62 µM | 33.4 µM |  | 36.5 µM |  |  |  |  |  | 
